Entries after “also recorded” stand apart in the source; their conditions may differ.
Key:
Type in all cases: cell-based, human
[1] = system: MDA-MB-231 cells; assay: Coculture of GFP-expressing MDA-MB-231 cells with RA-treated MCF-7 cells, MDA-MB-231 cell number by FACS
Procedure: Each bar represents MDA-MB-231 cell number after five days of culture relative to cell number in the absence of MCF-7 or RA. Mean and standard deviation were calculated from three independent experiments. • (b) MDA-MB-231 cells (GFP-expressing) were plated as 1:1 mixtures with MCF-7 cells that were either untreated or treated for eight days with 100 nM, and grown in the presence of DMSO carrier or 100 nM RA. Each bar represents MDA-MB-231 cell relative to MDA-MB-231 cell number in coculture with untreated MCF-7 without RA. Mean and standard deviation were calculated from three independent experiments.
Since retinoid-treated MCF-7 cells upregulate genes for secreted factors with different activities, a functional test was carried out to determine whether retinoid-treated MCF-7 cells express primarily pro-mitogenic or anti-mitogenic activity. In this assay, MCF-7 cells were mixed (1:1) with MDA-MB-231 breast carcinoma cells (insensitive to retinoids), which were transduced with Green Fluorescent Protein (GFP), providing the ability to distinguish and quantitate these cells by FACS analysis. The co-cultures were treated for five days with 100 nM RA. […] In contrast, retinoid treatment in coculture with MCF-7 decreased the number of MDA-MB-231 cells by about 25% (FIG. 4a). In another type of experiment, shown in FIG. 4b, MCF-7 cells were pre-treated for 8 days with RA, to allow for complete growth arrest and development of the senescent phenotype. The treated MCF-7 cells were collected by trypsinization and cocultured for three days with MDA-MB-231, in the presence or in the absence of RA. Coculture with RA-pretreated MCF-7 cells was sufficient to inhibit MDA-MB-231 cell growth by about 30%, as compared to coculture with untreated MCF-7 cells (FIG. 4B, left bar).

[2] = system: MCF-7 cells; assay: Effect on MCF-7 cell growth (cell number after 7 days exposure); conditions: LGD1550 100 nM, LG100815 10 μM, LGD1268 100 nM, LG101208 10 μM
Procedure: The bars represent cell number after 7 days of culture with the addition of DMSO (control), 100 nM RA, 100 nM RAR agonist LGD1550, 100 nM RXR agonist LGD1268, 10 μM RAR antagonist LG100815, and 10 μM RXR antagonist LG101208. Experiments were done in triplicate, and the results are expressed relative to the average of the control.
(§1) MCF-7 cells were plated at 5×10^5 per P100, and exposed on the next day to DMSO carrier, RA (100 nM), pan-RAR-specific ligands, LGD1550 (100 nM) and LG100815 (10 μM), pan-RXR specific agonist LGD1268, pan-RXR-specific antagonist LG101208, or drug-free DMSO carrier (control). The latter four compounds were provided by Ligand Pharmaceuticals, Inc. The effects of RAR ligands on the growth of MCF-7 cells were determined, as measured by the cell number after 7 days exposure to the compounds (FIG. 1) and on the fraction of cells expressing the senescence-associated β-galactosidase activity (SA-β-gal), a marker of senescence, after 7-day treatment with the compounds (FIG. 2).

[3] = system: MCF-7 cells; assay: Senescence-associated β-galactosidase (SA-β-gal) positive fraction of MCF-7 cells; conditions: 7-day treatment; same concentrations as for cell growth
Procedure: The bars represent percentages of SA-P-gal+cells after 8 days of treatment with the indicated compounds (in triplicate). The compounds were used at the same concentrations as in FIG. 1.
as §1

Compound	growth of MDA-MB-231 cells ([1]; 100 nM RA alone, without MCF-7 cells, five days)	decrease of the number of MDA-MB-231 cells ([1]; 100 nM RA in 1:1 coculture with MCF-7, five days)	inhibition of MDA-MB-231 cell growth ([1]; coculture for three days with MCF-7 pre-treated 8 days with RA, vs coculture with untreated MCF-7)	effect of addition of RA to the coculture on MDA-MB-231 growth inhibition ([1]; coculture with RA-pretreated MCF-7, 100 nM RA present, three days)	MCF-7 cell growth (cell number) [2]	fraction of cells expressing SA-β-gal (senescent phenotype) [3]
CC1=C(/C=C/C(C)=C/C=C/C(C)=C/C(=O)O)C(C)(C)CCC1 [RA, all-trans retinoic acid]	no effect	about 25%	about 30%	no significant effect	–	–
Cc1cc2c(cc1C1(c3ccc(C(=O)O)cn3)CC1)C(C)(C)CCC2(C)C [LGD1268]	–	–	–	–	did not inhibit cell growth; also recorded: modest but reproducible increase in cell growth	did not induce the senescent phenotype
